{"source": "patent US20080299140A1", "about": "“Immunogenic Composition and Peptide Sequences for Prevention and Treatment of an Hsv Condition” (priority 2002, published 2008)", "key": {"[1]": {"molecular_target": "T1, DR7=HLA-DR(α1*0101,α1*0701) (Homo sapiens, UniProt P01903+P01911, A100R/A102G/A103Q/D57E/D86V/E43K/F76Y/K127E/L162R/M171V/P40G/Q125H/Q99D/R33Q/R42Y/R54Q/S133A/S66F/T210M/V115G/Y107V/Y59L/Y89S)", "T1 construct": "endogenous in cells; host or cells: EBV homozygous human B cell line", "T1 sequence (P01911 30-266 with the stated changes, other chains not shown)": "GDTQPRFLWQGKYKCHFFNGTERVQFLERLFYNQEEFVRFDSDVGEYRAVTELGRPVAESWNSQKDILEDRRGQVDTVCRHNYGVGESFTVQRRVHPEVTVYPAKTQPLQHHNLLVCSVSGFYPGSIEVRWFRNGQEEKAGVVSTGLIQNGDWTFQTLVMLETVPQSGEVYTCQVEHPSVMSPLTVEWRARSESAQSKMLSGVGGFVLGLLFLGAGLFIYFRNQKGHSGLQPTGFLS", "test": "HLA-DR specific binding assay, DR7"}, "[2]": {"molecular_target": "T2, DRB3=HLA-DR(α1*0101,α3*0101) (Homo sapiens, UniProt P01903+P79483)", "T2 construct": "endogenous in cells; host or cells: STEILIN or 0206AD (both typed DRB3*0101)", "T2 sequence (P79483 30-266, other chains not shown)": "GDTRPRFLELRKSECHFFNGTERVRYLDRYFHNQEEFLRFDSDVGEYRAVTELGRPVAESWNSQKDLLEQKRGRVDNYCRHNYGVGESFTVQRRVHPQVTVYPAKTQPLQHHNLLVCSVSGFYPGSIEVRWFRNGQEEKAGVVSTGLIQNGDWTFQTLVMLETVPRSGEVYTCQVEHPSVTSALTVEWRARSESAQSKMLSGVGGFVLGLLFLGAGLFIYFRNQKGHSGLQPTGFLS", "test": "HLA-DR specific binding assay, DRB3 (DR52)"}, "I-E^d molecule": {"molecular_target": "T3, I-E^d molecule (Mus musculus, UniProt P01904+P01915)", "T3 sequence (P01904 26-255)": "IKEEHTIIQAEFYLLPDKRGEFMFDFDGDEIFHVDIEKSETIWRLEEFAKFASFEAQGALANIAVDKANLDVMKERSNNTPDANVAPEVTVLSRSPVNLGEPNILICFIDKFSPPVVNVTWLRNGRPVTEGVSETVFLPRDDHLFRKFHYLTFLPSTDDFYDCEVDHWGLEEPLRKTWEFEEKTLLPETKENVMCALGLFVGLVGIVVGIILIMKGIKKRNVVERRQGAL", "T3 sequence (P01915 32-264)": "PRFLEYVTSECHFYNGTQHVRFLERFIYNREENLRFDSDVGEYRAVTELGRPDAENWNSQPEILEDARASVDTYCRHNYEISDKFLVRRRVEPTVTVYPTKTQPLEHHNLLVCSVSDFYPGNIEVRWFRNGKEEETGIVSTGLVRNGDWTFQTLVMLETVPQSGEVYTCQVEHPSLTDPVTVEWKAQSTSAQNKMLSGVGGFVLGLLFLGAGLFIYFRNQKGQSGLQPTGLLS", "test": "Binding to I-E^d molecule", "parameters": "species or system mice"}, "[3]": {"molecular_target": "T4, DRB5=HLA-DR(α1*0101,α5*0101) (Homo sapiens, UniProt P01903+Q30154)", "T4 construct": "endogenous in cells; host or cells: EBV homozygous human B cell line", "T4 sequence (Q30154 30-266, other chains not shown)": "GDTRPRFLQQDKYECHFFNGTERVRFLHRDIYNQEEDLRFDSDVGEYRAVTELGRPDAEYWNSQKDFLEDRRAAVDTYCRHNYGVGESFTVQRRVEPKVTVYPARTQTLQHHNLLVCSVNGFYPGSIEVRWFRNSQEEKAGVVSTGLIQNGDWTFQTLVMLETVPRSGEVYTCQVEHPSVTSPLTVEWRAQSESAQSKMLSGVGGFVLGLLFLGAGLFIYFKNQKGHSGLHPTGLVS", "test": "biochemical", "format": "binding"}, "[4]": {"molecular_target": "T5, DP401=HLA-DP(α1*0101,α1*0401) (Homo sapiens, UniProt P04440+P20036)", "T5 sequence (P20036 32-260 limits assumed)": "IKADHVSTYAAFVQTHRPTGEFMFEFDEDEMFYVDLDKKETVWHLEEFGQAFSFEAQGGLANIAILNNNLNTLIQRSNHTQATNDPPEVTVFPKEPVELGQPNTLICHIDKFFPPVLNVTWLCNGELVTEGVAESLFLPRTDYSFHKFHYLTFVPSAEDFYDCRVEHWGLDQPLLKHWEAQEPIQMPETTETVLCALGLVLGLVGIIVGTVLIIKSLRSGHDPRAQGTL", "T5 sequence (P04440 30-258)": "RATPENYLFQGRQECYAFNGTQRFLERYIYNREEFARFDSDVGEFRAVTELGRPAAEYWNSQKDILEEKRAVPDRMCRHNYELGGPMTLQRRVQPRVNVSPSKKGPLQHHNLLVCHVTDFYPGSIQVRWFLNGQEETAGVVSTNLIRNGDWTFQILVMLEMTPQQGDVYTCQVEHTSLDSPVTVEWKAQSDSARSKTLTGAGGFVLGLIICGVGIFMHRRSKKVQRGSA", "test": "biochemical", "format": "binding"}, "T-cells": {"tested_on": "T-cells", "test": "Cytokine analysis (IL-2, IL-4, IFN-γ sandwich ELISA)", "format": "cell-based, mice", "protocol": "T-cells were stimulated with either immunizing peptides (10 μg/ml), the irrelevant control peptide (10 μg/ml), UV-inactivated HSV-1 (MOI=3), or with ConA (0.5 μg/ml) as a positive control. Culture media were harvested 48 h (for IL-2) or 96 h (for IL-4 and IFN-γ) later and analyzed by specific sandwich ELISA following the manufacturer's instructions (PharMingen, San Diego, Calif.)."}, "[5]": {"settings": "IC50, DRD3, Class II MHC allele DRD3 (so in the source)"}, "[6]": {"settings": "Table V, […], read-out: IC50 DRB5"}, "[7]": {"settings": "T cells treated with Abs to CD4"}, "[8]": {"settings": "T cells treated with Abs to CD8"}, "[9]": {"settings": "splenocyte derived T cells, no Abs, average of triplicates (+/- SD)"}}, "note": "Read-outs that look alike come from different tables or passages of the source.", "data": [{"compound": "CC[C@H](C)[C@H](NC(=O)[C@H](CO)NC(=O)[C@H](CC(=O)O)NC(=O)[C@@H](NC(=O)[C@@H](NC(=O)[C@@H](NC(=O)CNC(=O)[C@H](CCC(N)=O)NC(=O)[C@H](CCC(N)=O)NC(=O)[C@H](Cc1ccc(O)cc1)NC(=O)[C@H](C)NC(=O)[C@H](CCC(N)=O)NC(=O)[C@@H]1CCCN1C(=O)[C@H](CO)NC(=O)[C@H](CC(C)C)NC(=O)[C@H](CS)NC(=O)[C@H](C)NC(=O)[C@@H](N)CO)C(C)C)[C@@H](C)O)C(C)C)C(=O)NCC(=O)N[C@@H](CCSC)C(=O)N[C@@H](CC(C)C)C(=O)N1CCC[C@H]1C(=O)N[C@@H](CCCNC(=N)N)C(=O)N[C@@H](Cc1ccccc1)C(=O)N[C@H](C(=O)N1CCC[C@H]1C(=O)N[C@@H](CCC(=O)O)C(=O)N[C@@H](CC(N)=O)C(=O)N[C@@H](CCC(N)=O)C(=O)N[C@@H](CCCNC(=N)N)C(=O)N[C@H](C(=O)N[C@H](C(=O)N[C@@H](C)C(=O)N[C@H](C(=O)N[C@@H](Cc1ccc(O)cc1)C(=O)O)C(C)C)C(C)C)[C@@H](C)O)[C@@H](C)CC", "note": "[HSV 37]", "values": [{"measurement": "IC50", "setting": "[1]", "value": 200, "unit": "nM"}, {"measurement": "IC50", "setting": "[2]; [5]", "value": 41, "unit": "nM"}, {"measurement": "IC50", "setting": "[2]; IC50 DRB3, Table V, […]", "value": 41, "unit": "nM"}, {"measurement": "binding to I-E^d molecule", "setting": "I-E^d molecule", "value": "strong binders"}, {"measurement": "IC50", "setting": "[3]; [6]", "value": 68, "unit": "nM"}]}, {"compound": "CC[C@H](C)[C@H](NC(=O)[C@H](CO)NC(=O)[C@@H]1CCCN1C(=O)[C@@H](NC(=O)[C@H](Cc1c[nH]cn1)NC(=O)[C@H](Cc1c[nH]c2ccccc12)NC(=O)[C@H](CC(N)=O)NC(=O)[C@@H]1CCCN1C(=O)[C@@H]1CCCN1C(=O)[C@@H](NC(=O)[C@H](CCC(N)=O)NC(=O)[C@@H]1CCCN1C(=O)[C@H](C)N)[C@@H](C)CC)[C@@H](C)CC)C(=O)N[C@@H](CCC(N)=O)C(=O)N[C@@H](CC(=O)O)C(=O)N[C@@H](C)C(=O)N[C@@H](C)C(=O)N[C@H](C(=O)N1CCC[C@H]1C(=O)N[C@@H](Cc1ccc(O)cc1)C(=O)N[C@@H](Cc1c[nH]cn1)C(=O)N1CCC[C@H]1C(=O)N1CCC[C@H]1C(=O)N[C@@H](C)C(=O)N[C@H](C(=O)N1CCC[C@H]1C(=O)N[C@@H](CC(N)=O)C(=O)N[C@@H](CC(N)=O)C(=O)N[C@@H](CCSC)C(=O)NCC(=O)N[C@@H](CC(C)C)C(=O)O)[C@@H](C)O)[C@@H](C)O", "note": "[HSV 35]", "values": [{"measurement": "IC50", "setting": "[1]", "value": 2450, "unit": "nM"}, {"measurement": "IC50", "setting": "[2]; [5]", "value": 5000, "unit": "nM"}, {"measurement": "IC50", "setting": "[2]; IC50 DRB3, Table V, […]", "value": 5000, "unit": "nM"}, {"measurement": "binding to I-E^d molecule", "setting": "I-E^d molecule", "value": "strong binders"}, {"measurement": "IC50", "setting": "[3]; [6]", "value": 4500, "unit": "nM"}, {"measurement": "IC50", "setting": "[4]; Class II MHC allele DP401", "value": "> 100000", "unit": "nM"}, {"measurement": "IC50", "setting": "[4]; Table V, […]", "value": "> 100000", "unit": "nM"}]}, {"compound": "CC[C@H](C)[C@H](NC(=O)[C@H](CCC(N)=O)NC(=O)[C@@H]1CCCN1C(=O)[C@H](C)NC(=O)[C@H](CCC(=O)O)NC(=O)[C@H](CO)NC(=O)[C@@H]1CCCN1C(=O)[C@H](C)NC(=O)[C@H](CC(N)=O)NC(=O)[C@H](CC(C)C)NC(=O)[C@H](CC(C)C)NC(=O)[C@@H](NC(=O)[C@H](CO)NC(=O)[C@H](CCCNC(=N)N)NC(=O)[C@H](CS)NC(=O)[C@H](C)NC(=O)[C@H](CCCNC(=N)N)NC(=O)[C@H](CCC(=O)O)NC(=O)[C@H](CC(C)C)NC(=O)[C@@H](NC(=O)[C@H](C)NC(=O)[C@H](Cc1ccc(O)cc1)NC(=O)[C@H](Cc1ccc(O)cc1)NC(=O)[C@@H](NC(=O)[C@@H](NC(=O)[C@@H](NC(=O)[C@@H]1CCCN1C(=O)[C@H](CC(C)C)NC(=O)[C@H](CO)NC(=O)[C@@H]1CCCN1C(=O)[C@@H]1CCCN1C(=O)[C@@H](N)CCC(N)=O)[C@@H](C)CC)[C@@H](C)O)C(C)C)C(C)C)C(C)C)C(=O)N[C@H](C(=O)N[C@@H](CCCNC(=N)N)C(=O)O)C(C)C", "note": "[HSV 36]", "values": [{"measurement": "IC50", "setting": "[1]", "value": 173, "unit": "nM"}, {"measurement": "IC50", "setting": "[2]; [5]", "value": 5000, "unit": "nM"}, {"measurement": "IC50", "setting": "[2]; IC50 DRB3, Table V, […]", "value": 5000, "unit": "nM"}, {"measurement": "IC50", "setting": "[3]", "value": 66, "unit": "nM"}, {"measurement": "IFNγ, Anti-CD4", "setting": "T-cells; [7]", "value": "6 (+/−2) ng/ml"}, {"measurement": "IL-2, Anti-CD4", "setting": "T-cells; [7]", "value": "22 (+/−2) pg/ml"}, {"measurement": "IFNγ, Anti-CD8", "setting": "T-cells; [8]", "value": "66 (+/−2) ng/ml"}, {"measurement": "IL-2, Anti-CD8", "setting": "T-cells; [8]", "value": "88 (+/−5) pg/ml"}, {"measurement": "IFNγ, None", "setting": "T-cells; [9]", "value": "60 (+/−4) ng/ml"}, {"measurement": "IL-2, None", "setting": "T-cells; [9]", "value": "92 (+/−5) pg/ml"}, {"measurement": "IC50", "setting": "[4]; Class II MHC allele DP401", "value": 615, "unit": "nM"}, {"measurement": "IC50", "setting": "[4]; Table V, […]", "value": 615, "unit": "nM"}]}, {"compound": "CC[C@H](C)[C@H](NC(=O)[C@@H]1CCCN1C(=O)[C@H](CS)NC(=O)[C@H](C)NC(=O)CNC(=O)[C@H](CC(C)C)NC(=O)[C@H](CO)NC(=O)[C@H](CCCCN)NC(=O)[C@@H](N)CC(N)=O)C(=O)N[C@@H](CCCNC(=N)N)C(=O)N[C@H](C(=O)N[C@@H](CCC(N)=O)C(=O)N1CCC[C@H]1C(=O)N[C@@H](CCCNC(=N)N)C(=O)N[C@@H](Cc1c[nH]c2ccccc12)C(=O)N[C@@H](CC(N)=O)C(=O)N[C@@H](Cc1ccc(O)cc1)C(=O)N[C@@H](Cc1ccc(O)cc1)C(=O)N[C@@H](CC(=O)O)C(=O)N[C@@H](CO)C(=O)N[C@@H](Cc1ccccc1)C(=O)N[C@@H](CO)C(=O)N[C@@H](C)C(=O)N[C@H](C(=O)N[C@@H](CO)C(=O)N[C@@H](CCC(=O)O)C(=O)N[C@@H](CC(=O)O)C(=O)N[C@@H](CC(N)=O)C(=O)N[C@@H](CC(C)C)C(=O)NCC(=O)N[C@@H](Cc1ccccc1)C(=O)N[C@@H](CC(C)C)C(=O)O)C(C)C)[C@@H](C)O", "note": "[HSV 33]", "values": [{"measurement": "IC50", "setting": "[1]", "value": 19, "unit": "nM"}, {"measurement": "IC50", "setting": "[2]; [5]", "value": 226, "unit": "nM"}, {"measurement": "IC50", "setting": "[2]; IC50 DRB3, Table V, […]", "value": 226, "unit": "nM"}, {"measurement": "IC50", "setting": "[3]; [6]", "value": 134, "unit": "nM"}, {"measurement": "IC50", "setting": "[4]; Class II MHC allele DP401", "value": 83, "unit": "nM"}, {"measurement": "IC50", "setting": "[4]; Table V, […]", "value": 83, "unit": "nM"}]}]}
